Assays:
Format in all cases: in vivo
[1] = tested on: giant foxtail (Setaria faberi); experiment: Test G Pre-Emergence Protocol; conditions: Setaria faberi, pre-emergence, 312 h, evaluated after 13 days
In short: (§1)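 Test compound in 0.5% Tween 20 acetone/water (50:50) was applied at three rates (15.625, 62.5, 250 g/ha) to soil sown one day earlier. After 13 days plants were scored for injury, where 0 means unaffected and 100 means completely damaged.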

corn (Zea mays) [2] = experiment: Test G Pre-Emergence Protocol; conditions: Zea mays, pre-emergence, 312 h, evaluated after 13 days
In short: as §1

[3] = tested on: ivy-leaved morning glory (Ipomoea hederacea); experiment: Test G Pre-Emergence Protocol; conditions: Ipomoea, pre-emergence, 312 h, evaluated after 13 days
In short: as §1

[4] = tested on: redroot pigweed (Amaranthus retroflexus); experiment: Test G Pre-Emergence Protocol; conditions: Amaranthus retroflexus, pre-emergence, 312 h, evaluated after 13 days
In short: as §1

[5] = tested on: barnyardgrass (Echinochloa crus-galli); experiment: Test G Pre-Emergence Protocol; conditions: Echinochloa crus-galli, pre-emergence, 312 h, evaluated after 13 days
In short: as §1

[6] = tested on: velvetleaf (Abutilon theophrasti); experiment: Test G Pre-Emergence Protocol; conditions: Abutilon theophrasti, pre-emergence, 312 h, evaluated after 13 days
In short: as §1

[7] = tested on: giant foxtail (Setaria faberi); experiment: Test G Post-Emergence Protocol; conditions: Setaria faberi, post-emergence, 312 h
In short: (§2)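 Pot-grown seedlings, 8 days old, raised in a glasshouse at 24/16 °C day/night with 14 h light and 65% humidity, were sprayed post-emergence with test compound in acetone/water (50:50) plus 0.5% Tween 20 at 15.625, 62.5 or 250 g/ha. Damage was scored visually 13 days later on a 0–100 scale (100 = total damage).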

corn (Zea mays) [8] = experiment: Test G Post-Emergence Protocol; conditions: Zea mays, post-emergence, 312 h
In short: as §2

[9] = tested on: ivy-leaved morning glory (Ipomoea hederacea); experiment: Test G Post-Emergence Protocol; conditions: Ipomoea, post-emergence, 312 h
In short: as §2

[10] = tested on: redroot pigweed (Amaranthus retroflexus); experiment: Test G Post-Emergence Protocol; conditions: Amaranthus retroflexus, post-emergence, 312 h
In short: as §2

[11] = tested on: barnyardgrass (Echinochloa crus-galli); experiment: Test G Post-Emergence Protocol; conditions: Echinochloa crus-galli, post-emergence, 312 h
In short: as §2

[12] = tested on: velvetleaf (Abutilon theophrasti); experiment: Test G Post-Emergence Protocol; conditions: Abutilon theophrasti, post-emergence, 312 h
In short: as §2

Cc1ccc(NC(=O)[C@H]2C(=O)N(C)C[C@@H]2c2ccc(C(F)(F)F)cc2)nc1 (racemic) [Compound 1484]
0%: pest or weed control at 15.625 g/ha ([3]; 15.625 g ai/ha, read-out: Morning-glory, Ivy-leaved damage rating (100=total damage to plant; 0=no damage to plant)) | pest or weed control at 62.5 g/ha ([3]; 62.5 g ai/ha, 100=total damage to plant, 0=no damage to plant, read-out: plant damage rating, Morningglory, Ivy-leaved) | pest or weed control at 250 g/ha ([3]; 250 g ai/ha, read-out: Morningglory, Ivy-leaved damage rating (100=total damage to plant; 0=no damage to plant)) | pest or weed control at 15.625 g/ha ([4]; 15.625 g ai/ha, read-out: Pigweed, Redroot damage rating (100=total damage to plant; 0=no damage to plant)) | pest or weed control at 62.5 g/ha ([4]; 62.5 g ai/ha, 100=total damage to plant, 0=no damage to plant, read-out: plant damage rating, Pigweed, Redroot) | pest or weed control at 15.625 g/ha ([5]; 15.625 g ai/ha, read-out: Barnyard grass damage rating (100=total damage to plant; 0=no damage to plant)) | pest or weed control at 15.625 g/ha ([6]; 15.625 g ai/ha, read-out: Velvetleaf damage rating (100=total damage to plant; 0=no damage to plant)) | pest or weed control at 62.5 g/ha ([6]; 62.5 g ai/ha, 100=total damage to plant, 0=no damage to plant, read-out: plant damage rating, Velvetleaf) | pest or weed control at 250 g/ha ([6]; 250 g ai/ha, read-out: Velvetleaf damage rating (100=total damage to plant; 0=no damage to plant)) | plant injury at 62.5 g/ha (corn (Zea mays) [8]; 62.5 g ai/ha, evaluated after 13 days, read-out: Corn damage rating (100=total damage to plant; 0=no damage to plant)) | pest or weed control at 15.625 g/ha ([9]; 15.625 g ai/ha, evaluated after 13 days (100=total damage to plant; 0=no damage to plant), read-out: Morningglory, Ivy-leaved damage rating) | pest or weed control at 62.5 g/ha ([9]; 62.5 g ai/ha, evaluated after 13 days, read-out: Morningglory, Ivy-leaved damage rating (100=total damage to plant; 0=no damage to plant)) | pest or weed control at 250 g/ha ([9]; 250 g ai/ha, evaluated after 13 days, read-out: damage to plant, Morningglory, Ivy-leaved (100=total damage to plant; 0=no damage to plant)) | pest or weed control at 62.5 g/ha ([10]; 62.5 g ai/ha, evaluated after 13 days, read-out: Pigweed, Redroot damage rating (100=total damage to plant; 0=no damage to plant)) | pest or weed control at 15.625 g/ha ([12]; 15.625 g ai/ha, evaluated after 13 days (100=total damage to plant; 0=no damage to plant), read-out: Velvetleaf damage rating) | pest or weed control at 62.5 g/ha ([12]; 62.5 g ai/ha, evaluated after 13 days, read-out: Velvetleaf damage rating (100=total damage to plant; 0=no damage to plant))
20%: plant injury at 15.625 g/ha (corn (Zea mays) [2]; 15.625 g ai/ha, read-out: Corn damage rating (100=total damage to plant; 0=no damage to plant)) | pest or weed control at 250 g/ha ([4]; 250 g ai/ha, read-out: Pigweed, Redroot damage rating (100=total damage to plant; 0=no damage to plant)) | plant injury at 15.625 g/ha (corn (Zea mays) [8]; 15.625 g ai/ha, evaluated after 13 days (100=total damage to plant; 0=no damage to plant), read-out: Corn damage rating) | pest or weed control at 250 g/ha ([10]; 250 g ai/ha, evaluated after 13 days, read-out: damage to plant, Pigweed, Redroot (100=total damage to plant; 0=no damage to plant)) | pest or weed control at 15.625 g/ha ([11]; 15.625 g ai/ha, evaluated after 13 days (100=total damage to plant; 0=no damage to plant), read-out: Barnyardgrass damage rating) | pest or weed control at 62.5 g/ha ([11]; 62.5 g ai/ha, evaluated after 13 days, read-out: Barnyardgrass damage rating (100=total damage to plant; 0=no damage to plant))
40%: pest or weed control at 250 g/ha ([11]; 250 g ai/ha, evaluated after 13 days, read-out: damage to plant, Barnyardgrass (100=total damage to plant; 0=no damage to plant))
10%: pest or weed control at 15.625 g/ha ([1]; 15.625 g ai/ha, read-out: Foxtail, Giant damage rating (100=total damage to plant; 0=no damage to plant)) | pest or weed control at 62.5 g/ha ([1]; 62.5 g ai/ha, 100=total damage to plant, 0=no damage to plant, read-out: plant damage rating, Foxtail, Giant) | plant injury at 62.5 g/ha (corn (Zea mays) [2]; 62.5 g ai/ha, 100=total damage to plant, 0=no damage to plant, read-out: plant damage rating, Corn) | pest or weed control at 62.5 g/ha ([5]; 62.5 g ai/ha, 100=total damage to plant, 0=no damage to plant, read-out: plant damage rating, Barnyardgrass) | pest or weed control at 15.625 g/ha ([7]; 15.625 g ai/ha, evaluated after 13 days (100=total damage to plant; 0=no damage to plant), read-out: Foxtail, Giant damage rating) | pest or weed control at 62.5 g/ha ([7]; 62.5 g ai/ha, evaluated after 13 days, read-out: Foxtail, Giant damage rating (100=total damage to plant; 0=no damage to plant)) | pest or weed control at 15.625 g/ha ([10]; 15.625 g ai/ha, evaluated after 13 days (100=total damage to plant; 0=no damage to plant), read-out: Pigweed, Redroot damage rating) | pest or weed control at 250 g/ha ([12]; 250 g ai/ha, evaluated after 13 days, read-out: damage to plant, Velvetleaf (100=total damage to plant; 0=no damage to plant))
30%: pest or weed control at 250 g/ha ([1]; 250 g ai/ha, read-out: Foxtail, Giant damage rating (100=total damage to plant; 0=no damage to plant)) | plant injury at 250 g/ha (corn (Zea mays) [2]; 250 g ai/ha, read-out: Corn damage rating (100=total damage to plant; 0=no damage to plant)) | pest or weed control at 250 g/ha ([5]; 250 g ai/ha, read-out: Barnyardgrass damage rating (100=total damage to plant; 0=no damage to plant)) | pest or weed control at 250 g/ha ([7]; 250 g ai/ha, evaluated after 13 days, read-out: damage to plant, Foxtail, Giant (100=total damage to plant; 0=no damage to plant)) | plant injury at 250 g/ha (corn (Zea mays) [8]; 250 g ai/ha, evaluated after 13 days, read-out: damage to plant, Corn (100=total damage to plant; 0=no damage to plant))
